pIC50: −log10 of the molar value.
How the values were obtained:
A549 = experiment: Cytotoxicity against human A549 cells assessed as reduction in cell viability incubated for 72 hrs by alamar blue assay; type: functional, cell-based; settings: A549, 72 h
PC-3 = experiment: Cytotoxicity against human PC-3 cells assessed as reduction in cell viability incubated for 72 hrs by alamar blue assay; type: functional, cell-based; settings: PC-3, 72 h

Compound	pIC50 (A549)	pIC50 (PC-3)
COc1cccc2c1C(=O)c1c(O)c3c(c(O)c1C2=O)C[C@@](O)(C(C)=O)C[C@@H]3O[C@H]1C[C@H](N)[C@H](O)[C@H](C)O1 [DAUNORUBICIN]	6.70	6.77
COc1cc(O)c2c(c1)C(=O)c1cc3c(c(O)c1C2=O)[C@@H](O[C@@H]1O[C@@H](C)[C@H](OC)[C@@H](O)[C@H]1OC)[C@H](OC)[C@](C)(O)C3=O	5.55	5.51
COc1cccc2c1C(=O)c1c(cc3c(c1O)[C@@H](O[C@@H]1O[C@@H](C)[C@H](O)[C@@H](O)[C@H]1OC)[C@H](OC)[C@](C)(O)C3=O)C2=O	4.86	5.37
CO[C@H]1[C@H](O[C@@H]2c3c(cc4c(c3O)C(=O)c3c(O)cccc3C4=O)C(=O)[C@@](C)(O)[C@H]2OC)O[C@@H](C)[C@H](O)[C@H]1O [ARANCIAMYCIN]	5.57	5.96
CC(=O)[C@]1(O)Cc2c(O)c3c(c(O)c2[C@@H](O[C@H]2C[C@H](N)[C@H](O)[C@H](C)O2)C1)C(=O)c1c(O)cccc1C3=O [CARUBICIN]	7.88	7.46
